Results reported in ChEMBL document CHEMBL5724806, “Unraveling interindividual differences and functional consequences of gut microbial metabolism of immunosuppressants” (2024).

Assays:
Assay type in all cases: ADME
[1] = The drug is tested on the gut metagenome community of P-02 with ENA study accession number: PRJEB31790 for biotransformation under anaerobic condition. The drug concentrations were measured over 7 timepoints collected between 0 and 12 hours of incubation by liquid-chromatography-coupled mass spectrometry (LC–MS); parameters: dose 5 uM, timepoint 0, 0.75, 1.5, 3, 6, 9, 12 hours; settings: 5 µM
[2] = The drug is tested on Lactobacillus fermentum strain: DSM20052 for biotransformation under anaerobic condition. The drug concentrations were measured over 6 timepoints collected between 0 and 12 hours of incubation by liquid-chromatography-coupled mass spectrometry (LC–MS); parameters: dose 5 uM, timepoint 0, 1.5, 3, 6, 9, 12 hours; settings: limosilactobacillus fermentum, 5 µM
[3] = The drug is tested on Gemella morbillorum strain: DSM20572 for biotransformation under anaerobic condition. The drug concentrations were measured over 6 timepoints collected between 0 and 12 hours of incubation by liquid-chromatography-coupled mass spectrometry (LC–MS); parameters: dose 5 uM, timepoint 0, 1.5, 3, 6, 9, 12 hours; settings: 5 µM
[4] = The drug is tested on Bacteroides fragilis strain: DSM2151 for biotransformation under anaerobic condition. The drug concentrations were measured over 6 timepoints collected between 0 and 12 hours of incubation by liquid-chromatography-coupled mass spectrometry (LC–MS); parameters: dose 5 uM, timepoint 0, 1.5, 3, 6, 9, 12 hours; settings: 5 µM
[5] = The drug is tested on the gut metagenome community of A-09 with ENA study accession number: PRJEB31790 for biotransformation under microaerobic condition. The drug concentrations were measured over 7 timepoints collected between 0 and 12 hours of incubation by liquid-chromatography-coupled mass spectrometry (LC–MS); parameters: dose 5 uM, timepoint 0, 0.75, 1.5, 3, 6, 9, 12 hours; settings: 5 µM
[6] = The drug is tested on the gut metagenome community of A-07 with ENA study accession number: PRJEB31790 for biotransformation under microaerobic condition. The drug concentrations were measured over 7 timepoints collected between 0 and 12 hours of incubation by liquid-chromatography-coupled mass spectrometry (LC–MS); parameters: dose 5 uM, timepoint 0, 0.75, 1.5, 3, 6, 9, 12 hours; settings: 5 µM
[7] = The drug is tested on the gut metagenome community of P-02 with ENA study accession number: PRJEB31790 for biotransformation under microaerobic condition. The drug concentrations were measured over 7 timepoints collected between 0 and 12 hours of incubation by liquid-chromatography-coupled mass spectrometry (LC–MS); parameters: dose 5 uM, timepoint 0, 0.75, 1.5, 3, 6, 9, 12 hours; settings: 5 µM
[8] = The drug is tested on Lactobacillus reuteri strain: DSM20016 for biotransformation under anaerobic condition. The drug concentrations were measured over 6 timepoints collected between 0 and 12 hours of incubation by liquid-chromatography-coupled mass spectrometry (LC–MS); parameters: dose 5 uM, timepoint 0, 1.5, 3, 6, 9, 12 hours; settings: limosilactobacillus reuteri, 5 µM
[9] = The drug is tested on the gut metagenome community of A-05 with ENA study accession number: PRJEB31790 for biotransformation under anaerobic condition. The drug concentrations were measured over 7 timepoints collected between 0 and 12 hours of incubation by liquid-chromatography-coupled mass spectrometry (LC–MS); parameters: dose 5 uM, timepoint 0, 0.75, 1.5, 3, 6, 9, 12 hours; settings: 5 µM
[10] = The drug is tested on the gut metagenome community of T-01 with ENA study accession number: PRJEB31790 for biotransformation under microaerobic condition. The drug concentrations were measured over 7 timepoints collected between 0 and 12 hours of incubation by liquid-chromatography-coupled mass spectrometry (LC–MS); parameters: dose 5 uM, timepoint 0, 0.75, 1.5, 3, 6, 9, 12 hours; settings: 5 µM
[11] = The drug is tested on the gut metagenome community of A-02 with ENA study accession number: PRJEB31790 for biotransformation under microaerobic condition. The drug concentrations were measured over 7 timepoints collected between 0 and 12 hours of incubation by liquid-chromatography-coupled mass spectrometry (LC–MS); parameters: dose 5 uM, timepoint 0, 0.75, 1.5, 3, 6, 9, 12 hours; settings: 5 µM
[12] = The drug is tested on Alloscardovia omnicolens strain: DSM21503 for biotransformation under microaerobic condition. The drug concentrations were measured over 6 timepoints collected between 0 and 12 hours of incubation by liquid-chromatography-coupled mass spectrometry (LC–MS); parameters: dose 5 uM, timepoint 0, 1.5, 3, 6, 9, 12 hours; settings: 5 µM
[13] = The drug is tested on Coprococcus comes strain: ATCC27758 for biotransformation under anaerobic condition. The drug concentrations were measured over 6 timepoints collected between 0 and 12 hours of incubation by liquid-chromatography-coupled mass spectrometry (LC–MS); parameters: dose 5 uM, timepoint 0, 1.5, 3, 6, 9, 12 hours; settings: 5 µM
[14] = The drug is tested on Escherichia coli strain: DSM27469 for biotransformation under microaerobic condition. The drug concentrations were measured over 6 timepoints collected between 0 and 12 hours of incubation by liquid-chromatography-coupled mass spectrometry (LC–MS); parameters: dose 5 uM, timepoint 0, 1.5, 3, 6, 9, 12 hours; settings: 5 µM
[15] = The drug is tested on Enterococcus faecalis strain: ATCC29212 for biotransformation under anaerobic condition. The drug concentrations were measured over 6 timepoints collected between 0 and 12 hours of incubation by liquid-chromatography-coupled mass spectrometry (LC–MS); parameters: dose 5 uM, timepoint 0, 1.5, 3, 6, 9, 12 hours; settings: 5 µM
[16] = The drug is tested on the gut metagenome community of A-08 with ENA study accession number: PRJEB31790 for biotransformation under anaerobic condition. The drug concentrations were measured over 7 timepoints collected between 0 and 12 hours of incubation by liquid-chromatography-coupled mass spectrometry (LC–MS); parameters: dose 5 uM, timepoint 0, 0.75, 1.5, 3, 6, 9, 12 hours; settings: 5 µM
[17] = The drug is tested on Capnocytophaga ochracea strain: DSM7271 for biotransformation under microaerobic condition. The drug concentrations were measured over 6 timepoints collected between 0 and 12 hours of incubation by liquid-chromatography-coupled mass spectrometry (LC–MS); parameters: dose 5 uM, timepoint 0, 1.5, 3, 6, 9, 12 hours; settings: 5 µM
[18] = The drug is tested on the gut metagenome community of T-03 with ENA study accession number: PRJEB31790 for biotransformation under microaerobic condition. The drug concentrations were measured over 7 timepoints collected between 0 and 12 hours of incubation by liquid-chromatography-coupled mass spectrometry (LC–MS); parameters: dose 5 uM, timepoint 0, 0.75, 1.5, 3, 6, 9, 12 hours; settings: 5 µM
[19] = The drug is tested on Eubacterium eligens strain: DSM3376 for biotransformation under anaerobic condition. The drug concentrations were measured over 6 timepoints collected between 0 and 12 hours of incubation by liquid-chromatography-coupled mass spectrometry (LC–MS); parameters: dose 5 uM, timepoint 0, 1.5, 3, 6, 9, 12 hours; settings: lachnospira eligens, 5 µM
[20] = The drug is tested on Gemella haemolysans strain: DSM107751 for biotransformation under microaerobic condition. The drug concentrations were measured over 6 timepoints collected between 0 and 12 hours of incubation by liquid-chromatography-coupled mass spectrometry (LC–MS); parameters: dose 5 uM, timepoint 0, 1.5, 3, 6, 9, 12 hours; settings: 5 µM
[21] = The drug is tested on Bifidobacterium adolescentis strain: DSM20083 for biotransformation under anaerobic condition. The drug concentrations were measured over 6 timepoints collected between 0 and 12 hours of incubation by liquid-chromatography-coupled mass spectrometry (LC–MS); parameters: dose 5 uM, timepoint 0, 1.5, 3, 6, 9, 12 hours; settings: 5 µM
[22] = The drug is tested on the gut metagenome community of A-06 with ENA study accession number: PRJEB31790 for biotransformation under microaerobic condition. The drug concentrations were measured over 7 timepoints collected between 0 and 12 hours of incubation by liquid-chromatography-coupled mass spectrometry (LC–MS); parameters: dose 5 uM, timepoint 0, 0.75, 1.5, 3, 6, 9, 12 hours; settings: 5 µM
[23] = The drug is tested on Lactobacillus fermentum strain: DSM20052 for biotransformation under microaerobic condition. The drug concentrations were measured over 6 timepoints collected between 0 and 12 hours of incubation by liquid-chromatography-coupled mass spectrometry (LC–MS); parameters: dose 5 uM, timepoint 0, 1.5, 3, 6, 9, 12 hours; settings: limosilactobacillus fermentum, 5 µM
[24] = The drug is tested on the gut metagenome community of P-04 with ENA study accession number: PRJEB31790 for biotransformation under anaerobic condition. The drug concentrations were measured over 7 timepoints collected between 0 and 12 hours of incubation by liquid-chromatography-coupled mass spectrometry (LC–MS); parameters: dose 5 uM, timepoint 0, 0.75, 1.5, 3, 6, 9, 12 hours; settings: 5 µM
[25] = The drug is tested on Enterococcus faecalis strain: ATCC29212 for biotransformation under microaerobic condition. The drug concentrations were measured over 6 timepoints collected between 0 and 12 hours of incubation by liquid-chromatography-coupled mass spectrometry (LC–MS); parameters: dose 5 uM, timepoint 0, 1.5, 3, 6, 9, 12 hours; settings: 5 µM

C[C@@H]1C[C@H]2[C@@H]3CCC4=CC(=O)C=C[C@]4(C)[C@@]3(F)[C@@H](O)C[C@]2(C)[C@@]1(O)C(=O)CO [DEXAMETHASONE]
Bacterial Biotransformation [1]: Compound metabolized | Bacterial Biotransformation [2]: Compound NOT metabolized | Bacterial Biotransformation [3]: Compound NOT metabolized | Bacterial Biotransformation [4]: Compound NOT metabolized | Bacterial Biotransformation [5]: Compound metabolized | Bacterial Biotransformation [6]: Compound metabolized | Bacterial Biotransformation [7]: Compound NOT metabolized | Bacterial Biotransformation [8]: Compound NOT metabolized | Bacterial Biotransformation [9]: Compound NOT metabolized | Bacterial Biotransformation [10]: Compound metabolized | Bacterial Biotransformation [11]: Compound metabolized | Bacterial Biotransformation [12]: Compound NOT metabolized | Bacterial Biotransformation [13]: Compound NOT metabolized | Bacterial Biotransformation [14]: Compound NOT metabolized | Bacterial Biotransformation [15]: Compound NOT metabolized | Bacterial Biotransformation [16]: Compound NOT metabolized | Bacterial Biotransformation [17]: Compound NOT metabolized | Bacterial Biotransformation [18]: Compound NOT metabolized | Bacterial Biotransformation [19]: Compound NOT metabolized | Bacterial Biotransformation [20]: Compound NOT metabolized | Bacterial Biotransformation [21]: Compound NOT metabolized | Bacterial Biotransformation [22]: Compound metabolized | Bacterial Biotransformation [23]: Compound NOT metabolized | Bacterial Biotransformation [24]: Compound NOT metabolized | Bacterial Biotransformation [25]: Compound NOT metabolized

COc1ccc([C@@H]2Sc3ccccc3N(CCN(C)C)C(=O)[C@@H]2OC(C)=O)cc1 [DILTIAZEM]
Bacterial Biotransformation [1]: Compound metabolized | Bacterial Biotransformation [2]: Compound NOT metabolized | Bacterial Biotransformation [3]: Compound NOT metabolized | Bacterial Biotransformation [4]: Compound NOT metabolized | Bacterial Biotransformation [5]: Compound metabolized | Bacterial Biotransformation [6]: Compound metabolized | Bacterial Biotransformation [7]: Compound metabolized | Bacterial Biotransformation [8]: Compound NOT metabolized | Bacterial Biotransformation [9]: Compound metabolized | Bacterial Biotransformation [10]: Compound metabolized | Bacterial Biotransformation [11]: Compound metabolized | Bacterial Biotransformation [12]: Compound NOT metabolized | Bacterial Biotransformation [13]: Compound NOT metabolized | Bacterial Biotransformation [14]: Compound metabolized | Bacterial Biotransformation [15]: Compound NOT metabolized | Bacterial Biotransformation [16]: Compound metabolized | Bacterial Biotransformation [17]: Compound metabolized | Bacterial Biotransformation [18]: Compound NOT metabolized | Bacterial Biotransformation [19]: Compound NOT metabolized | Bacterial Biotransformation [20]: Compound NOT metabolized | Bacterial Biotransformation [21]: Compound NOT metabolized | Bacterial Biotransformation [22]: Compound metabolized | Bacterial Biotransformation [23]: Compound NOT metabolized | Bacterial Biotransformation [24]: Compound NOT metabolized | Bacterial Biotransformation [25]: Compound NOT metabolized

CO[C@H]1C[C@@H]2CC[C@@H](C)[C@@](O)(O2)C(=O)C(=O)N2CCCC[C@H]2C(=O)O[C@H]([C@H](C)C[C@@H]2CC[C@@H](OCCO)[C@H](OC)C2)CC(=O)[C@H](C)/C=C(\C)[C@@H](O)[C@@H](OC)C(=O)[C@H](C)C[C@H](C)/C=C/C=C/C=C/1C [EVEROLIMUS]
Bacterial Biotransformation [1]: Compound NOT metabolized | Bacterial Biotransformation [2]: Compound NOT metabolized | Bacterial Biotransformation [3]: Compound NOT metabolized | Bacterial Biotransformation [4]: Compound NOT metabolized | Bacterial Biotransformation [5]: Compound metabolized | Bacterial Biotransformation [6]: Compound metabolized | Bacterial Biotransformation [7]: Compound NOT metabolized | Bacterial Biotransformation [8]: Compound NOT metabolized | Bacterial Biotransformation [9]: Compound metabolized | Bacterial Biotransformation [10]: Compound NOT metabolized | Bacterial Biotransformation [11]: Compound metabolized | Bacterial Biotransformation [12]: Compound NOT metabolized | Bacterial Biotransformation [13]: Compound metabolized | Bacterial Biotransformation [14]: Compound NOT metabolized | Bacterial Biotransformation [15]: Compound metabolized | Bacterial Biotransformation [16]: Compound metabolized | Bacterial Biotransformation [17]: Compound NOT metabolized | Bacterial Biotransformation [18]: Compound NOT metabolized | Bacterial Biotransformation [19]: Compound NOT metabolized | Bacterial Biotransformation [20]: Compound NOT metabolized | Bacterial Biotransformation [21]: Compound NOT metabolized | Bacterial Biotransformation [22]: Compound metabolized | Bacterial Biotransformation [23]: Compound NOT metabolized | Bacterial Biotransformation [24]: Compound NOT metabolized | Bacterial Biotransformation [25]: Compound NOT metabolized
